In patent publication US7713948B2, “Use of 5-substituted nucleosides for reinforcing the apoptotic effect of cytostatic drugs” (Resprotect GmbH, priority 2003, dated 2010):
“Also recorded” adds a separate entry of the source.

What was measured:
AH13r sarcoma cells = assay: AH13r cell number under increasing doses of cytostatic with or without BVDU, followed by recovery phase; assay type: cell-based, rat; conditions: for cell number: cytostatic + BVDU after three treatment cycles, in comparison to cytostatic alone
Description: This effect was established by means of a screening system according to the invention. This screening method is based on the treatment of tumour cells during a chemotherapy cycle over a period of preferably eight to thirty days with increasing doses of a cytostatic and a constant dose of the overexpression inhibitor. After this combination treatment, the cytostatic is discontinued and the treatment is continued solely with the overexpression inhibitor. This recovery phase (also called recovery phase) lasts preferably between 3 and 10 days. Chemotherapy cycles of this type can be implemented successively up to 6 times.
AH13r cells were subjected to increasing doses of the cytostatic mitomycin C (MMC). […] This inhibitory effect was maintained even after discontinuation of the cytostatic in the next cycle, in the so-called recovery phase. The cells without MMC and BVDU continued to grow without inhibition.

AH13r tumour cells = assay: Hoechst 33258/propidium iodide (Hopi) double colouration for apoptosis; assay type: cell-based; conditions: HOPI double colouration of AH13r tumour cells of the rat
[1] = test system: APURINIC ENDONUCLEASE; APE; APE1; APEX; assay: Two-dimensional gel electrophoresis, APEX; assay type: cell-based; conditions: co-treatment of MMC with BVDU
Description: (§1) Listing of the proteins influenced by the treatment with base analogues and mitomycin C. The results of the implementation of a two-dimensional gel electrophoresis are compiled in the following Table 2.

JUN-D = assay: Western Blot analysis of survival pathways, JUN-D; assay type: cell-based
Description: (§2) We tested different “survival pathways” by means of Western Blot analysis. The analyses were implemented according to standard methods, as is described in Sambrook et al., 2001, Molecular Cloning (3rd ed.). Antibody dilutions: P-STAT3 (cell signalling) 1:500, JUN-D (Santa Cruz, Calif.) 1:1,000.
(§3) The densitometrically determined content of oncogene proteins JUN-D and STAT3 was reduced by a quarter or two thirds after DOX treatment in the recovery phase (r=recovery phase). In the “recovery” only BVDU is given, no cytostatic.

[2] = test system: UBIQUITIN-CONJUGATING ENZYME E2N; UBE2N; assay: Two-dimensional gel electrophoresis, UBE2N; assay type: cell-based; conditions: co-treatment of MMC with BVDU
Description: as §1

STAT3 = assay: Western Blot analysis of survival pathways, STAT3; assay type: cell-based; conditions: after DOX treatment, recovery phase (only BVDU given, no cytostatic)
Description: as §2, §3

[3] = DMBA tumour test in SD rats, animal weight (toxic side effects); assay type: in vivo
Procedure: DT-D inactivates ROS and thus protects cells from non-specific ROS and electrophilic attacks. […] DOX treatment alone leads to weight losses because of the toxic side effects. It is certain that only the side effects (possibly the cardiotoxicity characteristic of DOX) are reduced by BVDU but not the toxic effects on the tumour.
(§4) The reduction in toxic side effects of doxorubicin (DOX) was able to be shown in the test with rats (see Table 1). SD rats were treated with dimethybenzanthracene (DMBA). […] During the treatment and one day after each treatment, i.e. in the recovery phase, the animals obtained respectively 15 mg/kg BVDU.

[4] = test system: dimethybenzanthracene (DMBA) induced tumours; assay: DMBA-induced tumours in SD rats, tumour size; assay type: in vivo; conditions: DOX 1 mg/kg
Procedure: as §4

For `O=c1[nH]c(=O)n([C@H]2C[C@H](O)[C@@H](CO)O2)cc1/C=C/Br` [BVDU, (E)-5-(2-bromovinyl)-2′-deoxyuridine], the “cell growth in the recovery phase” value (AH13r sarcoma cells; after discontinuation of the cytostatic, BVDU continued alone) was “greatly inhibited in their growth”, the “toxic effect on cells” value (AH13r sarcoma cells; given alone) was “no toxic effect” and the apoptosis (AH13r tumour cells) was “promotes apoptosis”. The “reduction of overexpression of APEX” value [1] was “approximately one third”, the “inhibition of MMC induced JUN-D overexpression” value (JUN-D; BVDU given in the recovery after MMC) was “complete inhibition” and the “reduction of densitometrically determined content of JUN-D” value (JUN-D; after DOX treatment, recovery phase (only BVDU given, no cytostatic)) was “approximately one quarter; also recorded: a quarter”. The “reduction of overexpression of UBE2N” value [2] was “approximately one third” and the “reduction of densitometrically determined content of STAT3” value (STAT3) was “approximately two thirds”.
With `COc1cccc2c1C(=O)c1c(O)c3c(c(O)c1C2=O)C[C@@](O)(C(=O)CO)C[C@@H]3O[C@H]1C[C@H](N)[C@H](O)[C@H](C)O1` [DOX, doxorubicin] the “Relative animal weight Day 1” value ([3]; SD rats, DMBA-induced tumours, DOX 1 mg/kg, BVDU 15 mg/kg, average of 5-8 rats, Day 1) was 0, the “Relative animal weight Day 16” value ([3]; SD rats, DMBA-induced tumours, DOX 1 mg/kg, BVDU 15 mg/kg, average of 5-8 rats, Day 16) was −7% and the “animal weight change (toxic side effects)” value ([3]; rat, in vivo) was “weight losses”. For the same compound, the cell number (AH13r sarcoma cells) was “Corresponding results”, the apoptosis (AH13r tumour cells) was “initiate apoptosis” and the “Relative tumour size Day 1” value ([4]; DMBA-induced tumours, BVDU 15 mg/kg, average of 5-8 rats, Day 1) was 1. The “Relative tumour size Day 16” value ([4]; DMBA-induced tumours, BVDU 15 mg/kg, average of 5-8 rats, Day 16) was 1.5 and the “growth of DMBA-induced tumours” value [4] was “inhibited in their growth”.
For `CO[C@@]12[C@H](COC(N)=O)C3=C(C(=O)C(C)=C(N)C3=O)N1C[C@@H]1N[C@@H]12` [MMC, mitomycin C], the apoptosis (AH13r tumour cells) was “initiate apoptosis”.
For `CN(Cc1cnc2nc(N)nc(N)c2n1)c1ccc(C(=O)N[C@@H](CCC(=O)O)C(=O)O)cc1` [MTX, methotrexate], the cell number (AH13r sarcoma cells) was “Corresponding results”.
With `O=C1c2c(O)ccc(O)c2C(=O)c2c(NCCNCCO)ccc(NCCNCCO)c21` [MXA, mitoxantrone] the cell number (AH13r sarcoma cells) was “Corresponding results” and the apoptosis (AH13r tumour cells) was “initiate apoptosis”.
